According to US20170304329A1 (THE UNIVERSITY OF KANSAS, priority 2014, published 2017):
Values joined by “and” are separate entries in the source; they are usually repeats but may differ in a detail not shown here. Equal values may be shown once. Where a name gives a salt, the structure may show the parent alone. Read-outs that look alike come from different tables or passages of the source.

Tests used:
253JBV cells = test: Cell proliferation, hexosaminidase assay; type: cell-based, human
Experimental: (§1) To determine the effect of CPX on bladder cancer cell proliferation in T24 (MIBC) and 253-JBV (NMIBC) cells, 5,000 cells per well were seeded on to 96-well plates and grown overnight. The cells were then treated with increasing doses of CPX in RPMI media containing 10% FBS. Analysis of cell proliferation after the treatment period was estimated by the hexosaminidase assay. Briefly, the medium was removed and hexosaminidase substrate solution in citrate buffer pH 5 (7.5 mM), p-nitrophenol-N-acetyl-beta-D-glucosaminidase (Sigma Aldrich) was added at 75 μL per well. The plate was incubated at 37° C. in 100% humidity for 30 minutes. The reaction was stopped with 112.5 μL of 50 mM glycine containing 5 mM of EDTA (pH 10.4). The absorbance was measured at 405 nm. Experiments were conducted at n=6, and then repeated at least three times. The data were analyzed as percent of control, where the control wells were treated with equivalent amounts of DMSO alone. For IC50 calculations, a plot between the drug concentration and hexosaminidase activity was generated and the data was fitted either linearly or exponentially. The best fit was used for further processing of data.
(§2) We determined and compared the effect of CPX with CPX-POM and CPX-glucuronide in vitro by performing proliferation assay. To determine the effect of CPX, CPX-POM and CPX-glucuronide on bladder cancer cell proliferation in T24 (MIBC) and 253-JBV (NMIBC) cells, 5,000 cells per well were seeded on to 96-well plates and grown overnight. The cells were then treated with increasing doses of CPX, CPX-POM and CPX-glucuronide in RPMI media containing 10% FBS. Analysis of cell proliferation after the treatment period was estimated by the hexosaminidase assay. Briefly, the medium was removed and hexosaminidase substrate solution in citrate buffer pH 5 (7.5 mM), p-nitrophenol-N-acetyl-beta-D-glucosaminidase (Sigma Aldrich) was added at 75 μL per well. The plate was incubated at 37° C. in 100% humidity for 30 minutes. The reaction was stopped with 112.5 μL of 50 mM glycine containing 5 mM of EDTA (pH 10.4). The absorbance was measured at 405 nm.
(§3) Experiments were conducted at n=6, and then repeated at least three times. The data were analyzed as percent of control, where the control wells were treated with equivalent amounts of DMSO alone. For IC50 so calculations, a plot between the drug concentration and hexosaminidase activity was generated and the data was fitted either linearly or exponentially.

T24 cells = test: Cell proliferation, hexosaminidase assay; type: cell-based, human
Experimental: as §1, §2, §3

β-glucuronidase = system: β-glucuronidase
Experimental: Based on human excretion data [Kellner et al, Arzneimittel-Forschung. 31 (8A):1337-1353], as well as evidence that bladder cancer patients have increased glucuronidase activity in urine [Paigen, K., Peterson, J., Paigen B. (1984) Role of urinary β-glucuronidase activity in human bladder cancer. Cancer Res 44:3620-3623], we conducted in vitro metabolism studies to characterize the stability of ciclopirox glucuronide in urine (at a concentration of 150 μM) obtained from bladder cancer patients compared to control urine collected from healthy volunteers.

[1] = rats
[2] = Study 11428: plasma CPX pharmacokinetics after IV CPX-POM, SQ CPX-POM and oral CPX-O; type: in vivo, male Sprague-Dawley rats; settings: rats; for AUC: plasma, po
From the text: (§6) Intravenous CPX-POM was used as the reference in characterizing the bioavailability of ciclopirox following SQ ciclopirox-POM prodrug in this specie.

[3] = Study 11429: plasma CPX pharmacokinetics after IV CPX-POM, SQ CPX-POM and oral CPX-O; type: in vivo, male beagle dogs; settings: dogs; for AUC: plasma, po, 9 mg/kg
From the text: as §6

[4] = humans; oral; cited from earlier work
[5] = cited from earlier work
[6] = dogs
[7] = Study 208-02: plasma CPX pharmacokinetics after IV and oral CPX-O and CPX-POM; type: in vivo, male C57/Bl6 mice; settings: mice
From the text: Study 208-02. Bioavailability of Ciclopirox Following Oral and Intravenous Administration of Ciclopirox-POM Prodrug in the Mouse. […] The objectives of this study were to characterize the rate and extent of CPX-POM metabolism and assess the feasibility of orally administered ciclopirox-POM prodrug in support of future cancer proof of principle studies.

[8] = system: BBN induced bladder tumors; test: BBN induced bladder tumor model; type: in vivo, mouse
From the text: There were no significant differences in bladder weights between the two CPX-POM treatment groups. […] There is a strong correlation between CPX-POM treatment and tumor stage. […] Hematoxylin and Eosin stained bladder tissue sections of BBN alone group animals show a very high frequency of T3 stage tumors.

[9] = Study 11206: urine CPX and CPX-G pharmacokinetics after single and repeated IP CPX-POM; type: in vivo, male C57/Bl6 mice; settings: mice; IP 50, 100, and 200 mg/kg
Experimental: Urine ciclopirox (CPX) pharmacokinetics were characterized in mice following single (Day 1) and repeat (Day 10) dose (once daily for ten consecutive days) administration of 50, 100, and 200 mg/kg ciclopirox-POM prodrug (CPX-POM) to three separate groups of six mice each, are summarized in Table 3B below. […] Following single and repeat dose IP administration of 50, 100, and 200 mg/kg CPX-POM, less than 1% of the dose was excreted as CPX over 24 hours. Despite the low percent dose recovery as ciclopirox, however, urine CPX concentrations exceeded the in vitro IC50 value of 2 μM by several-fold across the entire dose range.

[10] = Series of pharmacokinetic studies (summary); settings: following IV administration in mice, rats, and dogs
[11] = Study 10954: plasma CPX pharmacokinetics after IV CPX-POM and CPX-O; type: in vivo, male Sprague-Dawley rats; settings: rats
From the text: (§4) Study 10954. Bioavailability of Ciclopirox Following Intravenous Administration of Ciclopirox-POM Prodrug in the Rat. […] Given the low oral bioavailability of CPX observed in the mouse following administration of CPX-O and CPX-POM, this route of administration was not investigated in this study.

[12] = Study 10954: urine CPX and CPX-G pharmacokinetics after IV CPX-POM and CPX-O; type: in vivo, male Sprague-Dawley rats; settings: rats; 10 mg/kg IV
From the text: as §4

[13] = mice
Experimental: The plasma and urine pharmacokinetics of ciclopirox (CPX) were characterized in the mouse following 10 mg/kg IV and 50 mg/kg IP administration of ciclopirox-POM prodrug (CPX-POM). […] In addition, we characterized the urinary excretion of CPX and ciclopirox glucuronide (CPX-G) to describe urinary tract exposure to CPX following IP administration of CPX-POM. Two treatment groups of 30 C57BL/6 mice each were treated with CPX-POM. Prior to and over six hours post-dose, three animals were sacrificed at each selected plasma sampling time point. Blood (plasma) was collected by cardiac puncture for bioanalysis. Plasma was pooled at each time point. In addition, two groups of six mice each were administered 10 mg/kg IV and 50 mg/kg IP CPX-POM to characterize urine pharmacokinetics. Mice were placed in metabolism cages with urine collected over 24 hours post-dose (0-8 hour and 8-24 hour urine collection intervals). As with plasma, urine samples collected from six animals were pooled for bioanalysis.

[14] = Study 10953: plasma CPX pharmacokinetics after IV CPX-POM and CPX-O; type: in vivo, male beagle dogs; settings: dogs
Experimental: (§5) Study 10953. Bioavailability of Ciclopirox Following Intravenous Administration of Ciclopirox-POM Prodrug in the Dog. […] Given the low oral bioavailability of CPX observed in the mouse following administration of CPX-O and CPX-POM, this route of administration was not investigated in this study.
FIG. 14 illustrates the mean plasma CPX concentration-time profiles following administration of 3 mg/kg IV CPX-POM and CPX-O to four male beagle dogs.

Aqueous solubility = type: physicochemical
[15] = Study 10953: urine CPX pharmacokinetics after IV CPX-POM and CPX-O; type: in vivo, male beagle dogs; settings: dogs; 3 mg/kg IV
From the text: as §5

[16] = system: proliferating cell nuclear antigen (PCNA) in T24 cells; test: Western blot of PCNA; type: cell-based, human
From the text: CPX-POM inhibits proliferating cell nuclear antigen (PCNA) both in vitro and in vivo. […] Also, studies show a positive correlation between notch intracellular pathway and PCNA.

[17] = 150 μM CPX-G, six-hour incubation, pooled urine from six NMIBC patients
[18] = male, Sprague-Dawley, rat, plasma CPX, single 30 mg/kg oral
[19] = male, beagle, dog, plasma CPX, single 9 mg/kg oral
[20] = male, C57/Bl6, mouse, plasma CPX, single 10 mg/kg IV

## Cc1cc(C2CCCCC2)n(O[C@H]2OC(C(=O)O)[C@H](O)C(O)C2O)c(=O)c1 (stereo partly shown) [CPX-G, ciclopirox glucuronide]
253JBV cells; up to 72 h
  effect on cell proliferation: did not show any significant effect
T24 cells; up to 72 h
  effect on cell proliferation: did not show any significant effect
β-glucuronidase; [17]
  ciclopirox formed by hydrolysis: 7.9 µM
  formation rate: 5%
β-glucuronidase; bladder cancer patient urine compared to healthy volunteers
  extent of ciclopirox formation, patient urine vs healthy volunteer urine: approximately 11.6 fold
β-glucuronidase; pooled bladder cancer patient urine vs control urine
  rate of β-glucuronidase-mediated hydrolysis, patient urine vs control urine: 5.6-11.5 fold

## Cc1cc(C2CCCCC2)n(O)c(=O)c1 [CPX-O, ciclopirox olamine]
[1]; urine, single 30 mg/kg oral
  FeCPX: 0.25 ± 0.18%
  Xe/dtCPX 0-8 hr: 0.63 ± 0.16 µg/h
  Xe/dtCPX 8-24 hr: 1.08 ± 1.11 µg/h
  XeCPX 0-24 hr: 22.30 ± 16.65 µg
[1]; urine, single 30 mg/kg oral, 30 mg/kg
  UCPX 0-24 hr: 1,711 ± 1,427 ng/mL and 8.28 ± 6.89 μM
[2]; male, Sprague-Dawley, rat, 30 mg/kg, plasma CPX, single 30 mg/kg oral, read-out: AUC0∫^n
  AUC: 211 ± 84.5 ng·h/mL
[2]; male, Sprague-Dawley, rat, 30 mg/kg, plasma CPX, single 30 mg/kg oral, read-out: AUC0∫^∞
  AUC: 378 ± 140 ng·h/mL
[2]; [18]
  Cmax: 373 ± 158 ng/mL
  Tmax: 15 ± 7.74 min
  half-life: 48.1 ± 33.5 min
[2]; plasma CPX, single 30 mg/kg oral
  Kel: 1.234 ± 0.742 h⁻¹
[2]; plasma CPX, single 30 mg/kg oral, reference IV CPX-POM, 30 mg/kg
  F: 4.6% and 4.56%
[3]; male, beagle, dog, plasma CPX, single 9 mg/kg oral, read-out: AUC0∫^n
  AUC: 1900 ng·h/mL
[3]; male, beagle, dog, plasma CPX, single 9 mg/kg oral, read-out: AUC0∫^∞
  AUC: 2700 ng·h/mL
[3]; [19]
  Cmax: 1020 ng/mL
  Tmax: 15 ± 7.74 min
  half-life: 331 ± 23.4 min
[3]; plasma CPX, single 9 mg/kg oral
  Kel: 0.126 ± 0.009 h⁻¹
[4]
  dose excreted in urine within 6 hours: 87%
  dose excreted in urine within 12 hours: approximately 95%
  dose in urine identified as ciclopirox: 4%
  dose in urine identified as ciclopirox and ciclopirox glucuronide: 83%
  dose in urine identified as ciclopirox glucuronide: 79%
[5]; 80 mg/m^2 oral, once daily
  tolerability: well tolerated
[5]; oral, four times daily
  toxicity: dose-limiting gastrointestinal toxicity
[6]; urine, single 9 mg/kg oral
  FeCPX: 0.32 ± 0.21%
  Xe/dtCPX 8-24 hr: 2.90 ± 1.70 µg/h
  XeCPX 0-24 hr: 299 ± 208 µg
[6]; urine, single 9 mg/kg oral, 9 mg/kg
  UCPX 0-24 hr: 1,602 ± 750^ ng/mL and 7.74 ± 3.62 μM
[7]; [20]
  C0: 11300 ng/mL
  MRT: 15.5 min
  clearance: 108 mL/min/kg
[7]; male, C57/Bl6, mouse, plasma CPX, single 10 mg/kg IV, read-out: Vss
  Vd: 1.68 L/kg
[7]; plasma CPX, single 10 mg/kg IV
  AUMC0∫^n: 358 ng*hr^2/mL
  AUMC0∫^∞: 401 ng*hr^2/mL
  Vdz: 5.7 L/kg

## Cc1cc(C2CCCCC2)n(OCOP(=O)(O)O)c(=O)c1 [CPX-POM, phosphate disodium salt]
[1]; 20 mg/kg IV and 30 mg/kg SQ
  tolerability: well tolerated
[8]; H&E stained bladder tissue sections, vs BBN alone
  tumor stage: significant reduction in the stage T3 frequency
[8]; bladder tissue
  Notch downstream target proteins: significantly reduced the Notch downstream target proteins such as Cyclin D1 and c-Myc
[8]; bladder tissue, both treatment groups
  Notch1 signaling and γ-secretase complex proteins in vivo: significantly reduced Notch1 activation
[8]; bladder tumor tissues
  PCNA level in vivo: reduced the level of PCNA in vivo
[8]; four weeks once daily IP 100 mg/kg and 200 mg/kg, vs controls
  bladder weights (measure of tumor volume): significantly lower (p=0.013)
[2]; 20 mg/kg IV and 30 mg/kg SQ
  CPX-POM in blood or urine: not detected in any blood or urine sample
[9]
  CPX-POM in urine: not detected in any urine samples
[10]
  prodrug in plasma and urine: not detected in plasma nor urine
[11]; 10 mg/kg IV bolus
  CPX-POM in plasma: failed to detect CPX-POM in the majority of samples collected
[11]; 10 mg/kg IV, IC50 2 μM (414 ng/mL)
  Cmax relative to in vitro IC50: approximately twenty-fold greater than the IC50
[3]; 3 mg/kg IV and 9 mg/kg SQ
  CPX-POM in blood or urine: not detected in any blood or urine sample
253JBV cells; Homo sapiens, 48 h
  IC50: 48 µM
T24 cells; Homo sapiens, T-24, 48 h, 48 h
  IC50: ≥ 45 µM
[12]
  CPX-POM in urine: not detected in any urine samples collected
[13]; 10 mg/kg IV and 50 mg/kg IP single doses
  tolerability: well tolerated
[13]; 50 mg/kg IP, IC50 2 μM (414 ng/mL)
  CPX Cmax relative to in vitro IC50: five-fold greater than the IC50
[13]; following either treatment (10 mg/kg IV, 50 mg/kg IP)
  CPX-POM in plasma (BQL): < 25 ng/mL
[14]; 3 mg/kg IV bolus
  CPX-POM in plasma: not detected in the majority of plasma samples assayed
[14]; 3 mg/kg IV, IC50 2 μM (414 ng/mL)
  mean Cmax relative to in vitro IC50: approximately seven-fold greater than the IC50
Aqueous solubility
  aqueous solubility: improve the aqueous solubility of ciclopirox
[6]; 3 mg/kg IV and 9 mg/kg SQ
  tolerability: well tolerated
[7]; following oral and IV administration
  prodrug in plasma: not detected in plasma
[15]
  CPX-POM in urine: not detected in any urine sample
[16]
  PCNA level: time dependent decrease in the level of PCNA
